Test system in one data set: not listed separately
The experiment in a line: Apparent permeability of compound across apical to basal side in vinblastine treated human Caco-2 cells at 1 to 10 uM incubated for 15 to 60 mins by HPLC analysis.
Conditions: not given
In general terms: Caco-2 monolayers are a common model of the intestinal barrier.
T1 sequence (P37288 whole entry): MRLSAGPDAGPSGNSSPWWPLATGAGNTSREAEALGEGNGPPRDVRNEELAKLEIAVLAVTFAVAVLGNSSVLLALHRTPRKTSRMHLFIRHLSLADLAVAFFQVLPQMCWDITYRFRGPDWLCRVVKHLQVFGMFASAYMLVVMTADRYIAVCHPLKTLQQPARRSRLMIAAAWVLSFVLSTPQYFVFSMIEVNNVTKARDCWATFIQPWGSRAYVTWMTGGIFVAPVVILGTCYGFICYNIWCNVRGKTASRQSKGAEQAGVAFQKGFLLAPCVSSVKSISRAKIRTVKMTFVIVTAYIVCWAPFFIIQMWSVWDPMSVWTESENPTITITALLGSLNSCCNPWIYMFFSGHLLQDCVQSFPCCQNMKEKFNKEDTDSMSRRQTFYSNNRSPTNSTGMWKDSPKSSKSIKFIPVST
Chain of Voltage-gated inwardly rectifying potassium channel KCNH2 (Q12809 whole entry): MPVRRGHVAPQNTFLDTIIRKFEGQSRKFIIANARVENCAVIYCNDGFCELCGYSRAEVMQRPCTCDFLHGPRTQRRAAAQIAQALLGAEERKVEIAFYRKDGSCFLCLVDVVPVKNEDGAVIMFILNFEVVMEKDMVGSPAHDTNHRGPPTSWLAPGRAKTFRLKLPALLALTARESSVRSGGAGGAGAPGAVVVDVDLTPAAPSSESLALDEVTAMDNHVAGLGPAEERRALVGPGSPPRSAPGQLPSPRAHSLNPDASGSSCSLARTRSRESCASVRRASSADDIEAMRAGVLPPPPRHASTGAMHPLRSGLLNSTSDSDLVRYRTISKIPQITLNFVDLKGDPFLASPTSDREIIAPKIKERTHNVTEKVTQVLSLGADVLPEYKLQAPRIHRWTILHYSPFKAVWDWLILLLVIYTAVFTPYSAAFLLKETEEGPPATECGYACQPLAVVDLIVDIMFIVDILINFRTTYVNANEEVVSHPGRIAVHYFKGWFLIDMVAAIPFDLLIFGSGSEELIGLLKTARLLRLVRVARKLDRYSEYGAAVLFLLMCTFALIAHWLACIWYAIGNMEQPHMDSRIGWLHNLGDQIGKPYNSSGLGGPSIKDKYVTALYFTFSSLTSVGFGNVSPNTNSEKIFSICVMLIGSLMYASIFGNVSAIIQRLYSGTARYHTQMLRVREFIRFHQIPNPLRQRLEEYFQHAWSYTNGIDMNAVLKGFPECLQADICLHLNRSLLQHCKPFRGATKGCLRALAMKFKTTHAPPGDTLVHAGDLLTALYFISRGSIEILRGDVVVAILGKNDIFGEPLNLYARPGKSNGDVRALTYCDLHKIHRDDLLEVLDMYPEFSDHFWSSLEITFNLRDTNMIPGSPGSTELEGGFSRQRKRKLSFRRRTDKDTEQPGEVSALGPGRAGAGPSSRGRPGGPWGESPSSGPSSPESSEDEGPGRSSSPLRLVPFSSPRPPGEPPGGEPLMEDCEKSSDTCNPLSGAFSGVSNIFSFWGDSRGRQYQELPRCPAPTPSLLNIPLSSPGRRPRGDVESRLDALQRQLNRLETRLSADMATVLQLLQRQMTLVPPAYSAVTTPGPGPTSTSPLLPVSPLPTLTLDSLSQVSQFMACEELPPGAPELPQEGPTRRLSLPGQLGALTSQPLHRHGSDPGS
In the case of `CC(=O)N[C@@H]1Cc2cc(Cl)ccc2-n2c(nnc2[C@H]2CC[C@H](Oc3ccccn3)CC2)C1`, the Papp A→B at 10 µM was found to be 2.7 ×10⁻⁶ cm/s.

Test system in the next data set: not listed separately
The experiment in a line: Efflux ratio of apparent permeability across basolateral to apical side over apical to basolateral side in vinblastine treated human Caco-2 cells at 1 to 10 uM incubated for 15 to 60 hrs by HPLC analysis.
Conditions: not given
For the molecule `Clc1cnc2n1CCCc1nnc([C@H]3CC[C@H](Oc4ccccn4)CC3)n1-2`, the efflux ratio at 10 µM amounted to 0.8.
With `CC(=O)N[C@@H]1Cc2cc(Cl)ccc2-n2c(nnc2[C@H]2CC[C@H](Oc3ccccn3)CC2)C1`, the efflux ratio at 10 µM was determined as 14.

Another data set has as its target T1, Vasopressin V1a receptor (Homo sapiens, UniProt P37288).
Test: not given
Conditions: not given
For the molecule `CC(C)NC1Cc2ccccc2-n2c(nnc2[C@H]2CC[C@H](Oc3ccccn3)CC2)C1` (stereo not given in full), affinity was put at a Ki of 5.6 nM.
Same read-out and setting: with `Clc1ccc2c(c1)CC1(CCCOC1)Cc1nnc([C@H]3CC[C@H](Oc4ccccn4)CC3)n1-2` (stereo not given in full) the figure was 0.3 nM.
On the same count and under the same terms, the value for `Clc1ccc2c(c1)CC1(CCOC1)Cc1nnc([C@H]3CC[C@H](Oc4ccccn4)CC3)n1-2` (stereo not given in full) was 0.3 nM.

Another data set has as its target T1, Vasopressin V1a receptor.
Test: not given
Conditions: not given
The source holds these as a separate data set.
Turning to `Clc1cnc2n1CCCc1nnc([C@H]3CC[C@H](Oc4ccccn4)CC3)n1-2`, the midpoint of inhibition, the IC50, lay at 178 nM.
`Clc1ccc2c(c1)CC1(CCCOC1)Cc1nnc([C@H]3CC[C@H](Oc4ccccn4)CC3)n1-2` (stereo not given in full): the IC50 is 23 nM.
In turn, `Clc1ccc2c(c1)CC1(Cc3nnc([C@H]4CC[C@H](Oc5ccccn5)CC4)n3-2)OCCCCO1` came in with a concentration for half-maximal inhibition (IC50) of 1.1 nM.
Still for that read-out and setting: with `Clc1ccc2c(c1)CC1(CCOC1)Cc1nnc([C@H]3CC[C@H](Oc4ccccn4)CC3)n1-2` (stereo not given in full) the figure was 1.3 nM.

A further data set concerns the target Voltage-gated inwardly rectifying potassium channel KCNH2 (Homo sapiens, UniProt Q12809).
Test: not given
Conditions: not given
In the case of `O=C1Cc2cc(Cl)ccc2-n2c(nnc2[C@H]2CC[C@H](Oc3ccccn3)CC2)C1`, the IC50 is above 30000 nM.

Test system in the next data set: not given
Test: not given
Conditions: human, microsomes, 1 µM.
On to `Clc1cnc2n1CCCc1nnc([C@H]3CC[C@H](Oc4ccccn4)CC3)n1-2`, for which the CLH was determined as 41 µL/min/mg.
On the same count and under the same terms, with `Clc1ccc2c(c1)CC1(CCCOC1)Cc1nnc([C@H]3CC[C@H](Oc4ccccn4)CC3)n1-2` (stereo not given in full) the figure was 0.256 mL/min/kg.
`Clc1ccc2c(c1)CC1(Cc3nnc([C@H]4CC[C@H](Oc5ccccn5)CC4)n3-2)OCCCCO1` showed a CLH of 0.17 mL/min/kg.
Take `Clc1ccc2c(c1)CC1(CCOC1)Cc1nnc([C@H]3CC[C@H](Oc4ccccn4)CC3)n1-2` (stereo not given in full): the CLH is 0.026 mL/min/kg.
The molecule `O=C1Cc2cc(Cl)ccc2-n2c(nnc2[C@H]2CC[C@H](Oc3ccccn3)CC2)C1` showed a CLH of 0.124 mL/min/kg.

Test system in the next data set: not listed separately
Description: in vitro. Conditions: human, microsomes.
As to `O=C(N[C@@H]1Cc2cc(Cl)ccc2-n2c(nnc2[C@H]2CC[C@H](Oc3ccccn3)CC2)C1)C1CCC1`, the microsomal CLint at 1 µM was 157 µL/min/mg.
The molecule `O=C(N[C@@H]1Cc2cc(Cl)ccc2-n2c(nnc2[C@H]2CC[C@H](Oc3ccccn3)CC2)C1)C1CCC(F)(F)CC1` yielded a microsomal CLint at 1 µM of 34 µL/min/mg.
Same read-out and setting: the value for `CC(C)(C)C(=O)N[C@@H]1Cc2cc(Cl)ccc2-n2c(nnc2[C@H]2CC[C@H](Oc3ccccn3)CC2)C1` was 49 µL/min/mg; that for `CN(C)CCC(=O)N[C@@H]1Cc2cc(Cl)ccc2-n2c(nnc2[C@H]2CC[C@H](Oc3ccccn3)CC2)C1` was 15 µL/min/mg.
On the same count and under the same terms, the value for `CC(=O)N[C@@H]1Cc2cc(Cl)ccc2-n2c(nnc2[C@H]2CC[C@H](Oc3ccccn3)CC2)C1` was 0.2 µL/min/mg.

Test system in a further data set: not listed separately
Description: in vitro. The conditions noted are these: Wistar, rat, microsomes.
`Clc1cnc2n1CCCc1nnc([C@H]3CC[C@H](Oc4ccccn4)CC3)n1-2` showed a microsomal CLint at 1 µM of 12 µL/min/mg.
`Clc1ccc2c(c1)CC1(CCCOC1)Cc1nnc([C@H]3CC[C@H](Oc4ccccn4)CC3)n1-2` (stereo not given in full): the intrinsic clearance (microsomal CLint) at 1 µM amounted to 267 µL/min/mg.
The molecule `Clc1ccc2c(c1)CC1(Cc3nnc([C@H]4CC[C@H](Oc5ccccn5)CC4)n3-2)OCCCCO1` displayed a microsomal CLint at 1 µM of 229 µL/min/mg.
Same read-out and setting: with `O=C(N[C@@H]1Cc2cc(Cl)ccc2-n2c(nnc2[C@H]2CC[C@H](Oc3ccccn3)CC2)C1)C1CCC1` the figure was 86 µL/min/mg; with `O=C(N[C@@H]1Cc2cc(Cl)ccc2-n2c(nnc2[C@H]2CC[C@H](Oc3ccccn3)CC2)C1)C1CCC(F)(F)CC1`, 32 µL/min/mg.
Regarding `CC(C)(C)C(=O)N[C@@H]1Cc2cc(Cl)ccc2-n2c(nnc2[C@H]2CC[C@H](Oc3ccccn3)CC2)C1`, the microsomal CLint at 1 µM came out at 77 µL/min/mg.
Consider `Clc1ccc2c(c1)CC1(CCOC1)Cc1nnc([C@H]3CC[C@H](Oc4ccccn4)CC3)n1-2` (stereo not given in full), for which the microsomal CLint at 1 µM is 42 µL/min/mg.
In turn, `O=C1Cc2cc(Cl)ccc2-n2c(nnc2[C@H]2CC[C@H](Oc3ccccn3)CC2)C1` had a microsomal CLint at 1 µM of 43 µL/min/mg.
On to `CN(C)CCC(=O)N[C@@H]1Cc2cc(Cl)ccc2-n2c(nnc2[C@H]2CC[C@H](Oc3ccccn3)CC2)C1`, for which the microsomal CLint at 1 µM came to 29 µL/min/mg.
Regarding `CC(=O)N[C@@H]1Cc2cc(Cl)ccc2-n2c(nnc2[C@H]2CC[C@H](Oc3ccccn3)CC2)C1`, the microsomal CLint at 1 µM amounted to 1 µL/min/mg.

Test system in the next data set: not listed separately
Description: in vitro. The conditions noted are these: NMRI, mouse, microsomes.
On to `Clc1cnc2n1CCCc1nnc([C@H]3CC[C@H](Oc4ccccn4)CC3)n1-2`, for which the microsomal CLint at 1 µM stood at 15 µL/min/mg.
With `Clc1ccc2c(c1)CC1(Cc3nnc([C@H]4CC[C@H](Oc5ccccn5)CC4)n3-2)OCCCCO1`, the microsomal CLint at 1 µM turned out to be 211 µL/min/mg.
On the same count and under the same terms, with `O=C1Cc2cc(Cl)ccc2-n2c(nnc2[C@H]2CC[C@H](Oc3ccccn3)CC2)C1` the figure was 36 µL/min/mg.

Test system in the next data set: not listed separately
The experiment in a line: in vitro. Conditions: CD-1, mouse, liver microsomes. (Liver microsomes are vesicles of endoplasmic reticulum, rich in cytochrome P450 enzymes.)
`Clc1ccc2c(c1)CC1(CCCOC1)Cc1nnc([C@H]3CC[C@H](Oc4ccccn4)CC3)n1-2` (stereo not given in full) had a microsomal CLint at 1 µM of 263 µL/min/mg.
On to `O=C(N[C@@H]1Cc2cc(Cl)ccc2-n2c(nnc2[C@H]2CC[C@H](Oc3ccccn3)CC2)C1)C1CCC1`, for which the microsomal CLint at 1 µM came to 91 µL/min/mg.
`O=C(N[C@@H]1Cc2cc(Cl)ccc2-n2c(nnc2[C@H]2CC[C@H](Oc3ccccn3)CC2)C1)C1CCC(F)(F)CC1` showed a microsomal CLint at 1 µM of 154 µL/min/mg.
Same read-out and setting: the value for `CC(C)(C)C(=O)N[C@@H]1Cc2cc(Cl)ccc2-n2c(nnc2[C@H]2CC[C@H](Oc3ccccn3)CC2)C1` was 242 µL/min/mg; that for `Clc1ccc2c(c1)CC1(CCOC1)Cc1nnc([C@H]3CC[C@H](Oc4ccccn4)CC3)n1-2` (stereo not given in full) was 80 µL/min/mg; that for `CN(C)CCC(=O)N[C@@H]1Cc2cc(Cl)ccc2-n2c(nnc2[C@H]2CC[C@H](Oc3ccccn3)CC2)C1` was 96 µL/min/mg.
In the case of `CC(=O)N[C@@H]1Cc2cc(Cl)ccc2-n2c(nnc2[C@H]2CC[C@H](Oc3ccccn3)CC2)C1`, the microsomal CLint at 1 µM was determined as 4 µL/min/mg.

Test system in another data set: not listed separately
The experiment in a line: animal or person. The conditions noted are these: Mus musculus, NMRI, po, read-out: INH.
Take `O=C1Cc2cc(Cl)ccc2-n2c(nnc2[C@H]2CC[C@H](Oc3ccccn3)CC2)C1`: the inhibition in vivo at 10 mg/kg came out at 70%.

Test system in another data set: not listed separately
Description: animal or person. Conditions: Mus musculus, NMRI, read-out: INH.
As for `Clc1cnc2n1CCCc1nnc([C@H]3CC[C@H](Oc4ccccn4)CC3)n1-2`, the inhibition in vivo at 10 mg/kg worked out at 32%.

Test system in the next data set: not listed separately
The experiment in a line: animal or person. The conditions noted are these: Mus musculus, NMRI, po, read-out: INH. The source holds these as a separate data set.
For `CC(C)NC1Cc2ccccc2-n2c(nnc2[C@H]2CC[C@H](Oc3ccccn3)CC2)C1` (stereo not given in full), the inhibition in vivo at 3 mg/kg is 18%.
On the same count and under the same terms, the value for `O=C1Cc2cc(Cl)ccc2-n2c(nnc2[C@H]2CC[C@H](Oc3ccccn3)CC2)C1` was 58%.

As usually defined, the Papp A→B is the apparent permeability from the apical to the basolateral side of a cell layer. Broadly, the efflux ratio is a quotient of directional permeabilities that is used to spot active efflux. As a reminder, the Ki is a measure of affinity in units of concentration, obtained from inhibition or displacement. High values mean a looser hold on the target, low ones a stronger hold on the target. A word on the IC50: it is the concentration at which inhibition is half-maximal. Usually microsomal CLint stands for the rate of metabolic loss divided by the concentration. Lower therefore signals slow turnover.

Source of the values: ChEMBL document CHEMBL5532679, “Discovery and Characterization of RGH-122, a Potent, Selective, and Orally Bioavailable V1a Receptor Antagonist” (J Med Chem, 2024).
